Test results taken from US20080004222A1, “Antitumorigenic Drug Combination” (priority 2006, published 2008).
Non-standard residues stand in square brackets, D forms with d. d(aIle) = CC[C@H](C)[C@@H](N)C(=O)O; Nva = CCC[C@H](N)C(=O)O; Sar = CNCC(=O)O

Key:
large NB xenografts = settings: large xenografts >380 mm^3, after 10 days of treatment; peptide p<0.01, VPA p<0.001; FIG. 1C
Procedure: (§1) SMS-KCNR, NMB, and NBL-W-S MYCN amplified NB cell lines were used in this study. Cells were grown at 5% CO2 in RPMI 1640 (Invitrogen, Carlsbad, Calif.) supplemented with 10% heat-inactivated fetal bovine serum, L-Glutamine, and antibiotics.
(§2) Lyophilized peptides with the sequence: acetyl-sarcosine-glycine-valine-D-alloisoleucine-threonine-norvaline-isoleucine-arginine-proline-ethylamide were dissolved in sterile 5% dextrose and stored at 4° C.
(§3) Female 4-6 week old homozygous athymic nude mice (Harlan, Madison, Wis.) were inoculated s.c. into the right flank with ^1×107SMS-KCNR or 1.25×10^7 NMB cells. Once tumors were palpable (70 mm^3), mice were treated 1×/day for 20 days with either acetyl-sarcosine-glycine-valine-Dalloisoleucine-threonine-norvaline-isoleucine-arginine-proline-ethylamide (IP, 40 mg/kg), VPA (IP, 400 mg/kg) or acetyl-sarcosine-glycine-valine-D-alloisoleucine-threonine-norvaline-isoleucine-arginine-proline-ethylamide and VPA (in combination). In separate experiments, treatment was started after the animals developed larger tumors>380 mm^3 in size and treatment was continued for 10 days. Tumor volumes were measured twice a week and calculated using the formula: tumor volume =(length X width^2)/2(25). The Student's t-test was used to compare tumor size in the control and treatment groups. Mice were sacrificed after 20 or 10 days of treatment, respectively. […]

[1] = tested on: NMB MYCN-amplified NB cell line xenografts; experiment: Neuroblastoma xenograft study, NMB xenografts; type: in vivo, athymic nude mice; settings: NMB xenografts about 70 mm^3, 20 days of treatment, each agent alone and in combination
Procedure: as §1, §2, §3

[2] = tested on: SMS-KCNR MYCN-amplified NB cell line xenografts; experiment: Neuroblastoma xenograft study, SMS-KCNR model; type: in vivo, athymic nude mice; settings: SMS-KCNR xenografts about 70 mm^3, 20 days of treatment, each agent alone and in combination
Procedure: as §1, §2, §3

| Molecule | tumor volumes reduced (large NB xenografts) [%] | tumor growth (result in words) [1] | tumor growth (result in words) [2] |
| --- | --- | --- | --- |
| CCCC(CCC)C(=O)O [VPA, valproic acid] | 44 | Tumor growth was inhibited | Tumor growth was inhibited |
| Ac-[Sar]GV[d(aIle)]T[Nva]IRP-NHEt | 33 | Tumor growth was inhibited | Tumor growth was inhibited |
